Data reported in patent US10507214B2 (Druggability Technologies IP Holdco Limited, priority 2016, dated 2019).
≈ marks a conversion by molar mass, not a printed value. Where two headings read alike, the source gives them in different places.

Legend:
[1] = single dose of 200 mg of current formulation; cited from earlier work
[2] = cited from earlier work
[3] = cited from earlier work; remark: listed apart in the source
[4] = healthy subjects, within the clinical dose range; cited from earlier work
[5] = Apparent solubility by UV-VIS spectroscopy after 100 nm filtration; assay type: physicochemical; conditions: thermodynamic from solid; redispersed at 2 mg/mL in ultrapurified water, room temperature
Excerpt: The resulting solutions were filtered by 100 nm disposable syringe filter.

[6] = PAMPA permeability; assay type: in vitro ADME; conditions: pH 7, in water, FaSSIF and FeSSIF
[7] = In-vivo PK test in beagle dogs; conditions: oral, dispersed granulates, beagle dogs following a high-fat meal
[8] = single oral dose of radiolabeled drug

SMILES | onset of pain relief [1] [h] | solubility in chloroform ([2]; chloroform) | solubility in methanol ([2]; methanol) | solubility in water ([2]; water) | time of peak plasma levels ([3]; after an oral dose) | effective half-life ([3]; fasted conditions) | dose proportionality of Cmax and AUC ([3]; fasting conditions, up to 200 mg BID) | overall systemic exposure (AUC), intact capsule versus capsule contents sprinkled on applesauce ([3]; healthy adult volunteers) | apparent plasma clearance (CL/F) ([3]; in vivo) | unchanged drug recovered in the urine and feces ([3]; in vivo) [%] | steady-state conditions reached ([3]; multiple dosing) [days] | time of peak plasma levels ([3]; single dose of 200 mg of current formulation, oral) [h] | carboxylic acid metabolite in urine and feces [3, 8] | dose excreted in the feces [3, 8] | dose excreted into the urine [3, 8] [%] | protein bound [4] [%] | solubility [5] [µg/mL] | Papp at 4 h [6] [×10⁻⁶ cm/s] | Tmax ([7]; dog, plasma, 5 mg/kg) [h] | t250 ng/ml [7] [min]
Cc1ccc(-c2cc(C(F)(F)F)nn2-c2ccc(S(N)(=O)=O)cc2)cc1 [Celecoxib, 4-[5-(4-methylphenyl)-3-(trifluoromethyl)-1H-pyrazol-1-yl] benzenesulfonamide] | ≥ 1 | soluble | soluble | insoluble | approximately 3 hrs | approximately 11 hours | roughly dose-proportional | equivalent | about 500 mL/min | < 3 | ≤ 5 | 3 | 73 % of dose | approximately 57% | ~27 | ~97 |  |  |  | 
Cc1ccc(-c2cc(C(F)(F)F)nn2-c2ccc(S(N)(=O)=O)cc2)cc1 [crystalline Celecoxib (micronized)] |  |  |  |  |  |  |  |  |  |  |  |  |  |  |  |  | 2.85 (≈ 7.47 µM) | < 0.2 | 2 | 45
